ChEMBL document CHEMBL1137150, “Factor Xa inhibitors based on a 2-carboxyindole scaffold: SAR of neutral P1 substituents” (Bioorg Med Chem Lett, 2004)

Key:
Serine protease 1 = Serine protease 1 (Homo sapiens, UniProt P07477); test: […]
[1] = biological target: Tissue-type plasminogen activator (Homo sapiens, UniProt P00750); test: inhibitory activity against human tissue plasminogen activator
Prothrombin [2] = biological target: T1, Prothrombin (Homo sapiens, UniProt P00734); test: Concentration required for 50% inhibition of dilute prothrombin time; assay type: functional
[3] = Percent compound remaining after 2 hr incubation with human S9 liver fraction; assay type: ADME, subcellular; conditions: read-out: Activity
Prothrombin [4] = biological target: T1, Prothrombin; test: Inhibitory activity against coagulation factor II (thrombin)
Coagulation factor X = Coagulation factor X (Homo sapiens, UniProt P00742); test: Inhibitory activity against coagulation factor Xa
Prothrombin [5] = biological target: T1, Prothrombin; test: Concentration required to double plasma clotting time of prothrombin time; assay type: functional, cell-free

Sequence of Tissue-type plasminogen activator (P00750 whole entry): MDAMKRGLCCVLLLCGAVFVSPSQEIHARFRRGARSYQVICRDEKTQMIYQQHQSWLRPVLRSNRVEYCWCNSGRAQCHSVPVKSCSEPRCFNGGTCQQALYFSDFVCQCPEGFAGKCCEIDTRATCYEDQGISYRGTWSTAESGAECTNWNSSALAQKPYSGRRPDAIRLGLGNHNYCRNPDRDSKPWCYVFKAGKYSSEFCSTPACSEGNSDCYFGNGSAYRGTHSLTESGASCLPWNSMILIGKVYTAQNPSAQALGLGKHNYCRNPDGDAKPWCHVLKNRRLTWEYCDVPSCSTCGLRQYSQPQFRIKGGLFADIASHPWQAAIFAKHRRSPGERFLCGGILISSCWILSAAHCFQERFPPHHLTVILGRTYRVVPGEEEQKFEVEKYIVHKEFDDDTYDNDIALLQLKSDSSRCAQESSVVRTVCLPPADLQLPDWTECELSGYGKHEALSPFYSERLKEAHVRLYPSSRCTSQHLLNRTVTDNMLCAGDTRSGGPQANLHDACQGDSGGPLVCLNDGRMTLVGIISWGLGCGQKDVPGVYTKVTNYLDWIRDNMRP
Sequence of Coagulation factor X (P00742 41-179 limits assumed): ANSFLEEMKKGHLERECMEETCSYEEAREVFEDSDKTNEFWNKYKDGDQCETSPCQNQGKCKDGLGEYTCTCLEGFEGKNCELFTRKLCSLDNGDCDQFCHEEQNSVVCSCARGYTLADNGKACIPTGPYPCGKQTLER
Sequence of Coagulation factor X (P00742 235-488 limits assumed): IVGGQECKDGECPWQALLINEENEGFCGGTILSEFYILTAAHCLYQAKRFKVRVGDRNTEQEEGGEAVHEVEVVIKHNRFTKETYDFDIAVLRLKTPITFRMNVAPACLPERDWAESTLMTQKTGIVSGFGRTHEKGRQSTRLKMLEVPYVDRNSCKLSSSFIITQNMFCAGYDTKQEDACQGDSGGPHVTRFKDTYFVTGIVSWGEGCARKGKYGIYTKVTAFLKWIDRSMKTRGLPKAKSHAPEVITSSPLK
Sequence of Serine protease 1 (P07477 whole entry): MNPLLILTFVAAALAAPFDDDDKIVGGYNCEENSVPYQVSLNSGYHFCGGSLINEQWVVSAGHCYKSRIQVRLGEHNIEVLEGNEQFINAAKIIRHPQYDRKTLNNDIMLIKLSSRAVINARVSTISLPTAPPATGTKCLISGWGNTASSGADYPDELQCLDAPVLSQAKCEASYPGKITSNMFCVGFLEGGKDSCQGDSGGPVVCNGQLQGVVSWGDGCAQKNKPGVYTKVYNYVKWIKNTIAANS

| Compound | Ki (Serine protease 1) | Ki [1] | IC50 (Prothrombin [2]) | remaining at 2 h [3] | Ki (Prothrombin [4]) | Ki (Coagulation factor X) | other results |
| --- | --- | --- | --- | --- | --- | --- | --- |
| CC(C)N1CCC(NC(=O)c2cc3ccccc3n2CC(=O)Nc2ccc(Cl)cn2)CC1 | > 100 µM | > 100 µM | 0.02 µM | 95% | > 10 µM | – | – |
| CC(C)N1CCC(NC(=O)c2cc3ccccc3n2Cc2cnc(-c3ccc(Cl)cc3)s2)CC1 | – | – | – | – | – | 2.73 µM | – |
| CC(C)N1CCC(NC(=O)c2cc3ccccc3n2Cc2cc(-c3ccc(Cl)s3)on2)CC1 | > 100 µM | – | – | 94% | – | – | – |
| CC(C)N1CCC(NC(=O)c2cc3ccccc3n2-c2cccc(Cl)c2)CC1 | – | – | – | – | – | 9.01 µM | – |
| CC(C)N1CCC(NC(=O)c2cc3ccccc3n2Cc2ccc(Cl)cc2)CC1 | – | – | – | – | – | 2.5 µM | – |
| CC(C)N1CCC(NC(=O)c2cc3ccccc3n2CC(=O)Nc2cccc(Cl)c2)CC1 | – | – | – | – | – | 0.287 µM | – |
| COc1cccc(CCn2c(C(=O)NC3CCN(C(C)C)CC3)cc3ccccc32)c1 | – | – | – | – | – | > 10 µM | – |
| COc1cccc(-n2c(C(=O)NC3CCN(C(C)C)CC3)cc3ccccc32)c1 | – | – | – | – | – | 2.48 µM | – |
| CC(C)N1CCC(NC(=O)c2cc3ccccc3n2CC(=O)Nc2ccc(Cl)cc2)CC1 | > 100 µM | > 100 µM | 0.02 µM | 67% | > 10 µM | – | – |
| CC(C)N1CCC(NC(=O)c2cc3ccccc3n2Cc2cc3ccc(Cl)cc3s2)CC1 | > 100 µM | > 100 µM | 0.89 µM | 98% | 9.04 µM | – | Concentration (Prothrombin [5]): 14.1 µM |
